The test system of the assay is SCC cells. In kind it is in vivo, C3H/HeN mice. Conditions: 5 mg/kg intraperitoneal twice weekly; Example 7, FIG. 8.

Consider “bevacizumab: FDA-approved anti-angiogenic monoclonal antibody that binds the receptor binding domain of VEGF”, for which the “tumor growth inhibition compared with the control” value is on record as “about 74%”.

The values above are taken from patent US8088753B2, “Heparin conjugates and methods” (Mediplex Corporation, Korea, priority 2007, dated 2012).
